Reference: PubChem BioAssay AID248 (DTP/NCI, 2004)
Several values for one entry are separate records, joined by “and”; a condition that tells them apart may be missing. Identical values can stand only once. Inconclusive results and toxic doses are left out. Rule as the data show it: active = T/C of 150% or more; inactive = T/C below 125%. Peptide text beside a SMILES is read from it. * marks the point of attachment. Cbz = O=C(OCc1ccccc1)*; OBn = c1ccc(CO*)cc1; Bn = c1ccc(C*)cc1

Test system: L1210 leukemia ip in BDF1 mice, survival T/C
Experiment: NCI In Vivo Anticancer Drug Screen. Data for tumor model L1210 Leukemia (intraperitoneal) in B6D2F1 (BDF1) mice
Settings: endpoint: mean survival time, higher = longer survival
How it was run: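 Value reflects the ratio of survival in compound-treated mice to survival in vehicle-treated controls, with both groups carrying the same transplanted tumor.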

[1] = dose: 100.0 mg/kg/injection, schedule: Q04DX003 (ip), vehicle: saline
[2] = dose: 200.0 mg/kg/injection, schedule: Q04DX003 (ip), vehicle: saline
[3] = dose: 400.0 mg/kg/injection, schedule: Q04DX003 (ip), vehicle: saline
[4] = dose: 100.0 mg/kg/injection, schedule: Q01DX009 (ip), vehicle: Klucel (hydroxypropylcellulose) (HPC)
[5] = dose: 200.0 mg/kg/injection, schedule: Q01DX009 (ip), vehicle: Klucel (hydroxypropylcellulose) (HPC)
[6] = dose: 100.0 mg/kg/injection, schedule: Q01DX001 (ip), vehicle: carboxymethylcellulose (CMC)
[7] = dose: 200.0 mg/kg/injection, schedule: Q01DX001 (ip), vehicle: carboxymethylcellulose (CMC)
[8] = dose: 400.0 mg/kg/injection, schedule: Q01DX001 (ip), vehicle: carboxymethylcellulose (CMC)
[9] = dose: 400.0 mg/kg/injection, schedule: Q01DX009 (ip), vehicle: Klucel (hydroxypropylcellulose) (HPC)
[10] = dose: 100.0 mg/kg/injection, schedule: Q01DX009 (ip), vehicle: saline with Tween-80
[11] = dose: 200.0 mg/kg/injection, schedule: Q01DX009 (ip), vehicle: saline with Tween-80
[12] = dose: 100.0 mg/kg/injection, schedule: Q04DX002 (ip), vehicle: saline with Tween-80
[13] = dose: 200.0 mg/kg/injection, schedule: Q04DX002 (ip), vehicle: saline with Tween-80
[14] = dose: 100.0 mg/kg/injection, schedule: Q04DX003 (ip), vehicle: Klucel (hydroxypropylcellulose) (HPC)
[15] = dose: 200.0 mg/kg/injection, schedule: Q04DX003 (ip), vehicle: Klucel (hydroxypropylcellulose) (HPC)
[16] = dose: 400.0 mg/kg/injection, schedule: Q01DX009 (ip), vehicle: saline with Tween-80
[17] = dose: 400.0 mg/kg/injection, schedule: Q04DX003 (ip), vehicle: Klucel (hydroxypropylcellulose) (HPC)
[18] = dose: 100.0 mg/kg/injection, schedule: Q04DX003 (ip), vehicle: saline with Tween-80
[19] = dose: 200.0 mg/kg/injection, schedule: Q04DX003 (ip), vehicle: saline with Tween-80
[20] = dose: 400.0 mg/kg/injection, schedule: Q04DX003 (ip), vehicle: saline with Tween-80
[21] = dose: 400.0 mg/kg/injection, schedule: Q04DX002 (ip), vehicle: saline with Tween-80

Measured: T/C

CN=C(c1ccc(NC(=O)c2cc(N)cc(C(=O)Nc3ccc(C(=NC)N(C)C)cc3)c2)cc1)N(C)C
inactive: dose: 0.9 mg/kg/injection, schedule: Q01DX Z (ip), vehicle: carboxymethylcellulose (CMC) 94 % of control | dose: 1.87 mg/kg/injection, schedule: Q01DX Z (ip), vehicle: carboxymethylcellulose (CMC) 97 % of control | dose: 3.75 mg/kg/injection, schedule: Q01DX Z (ip), vehicle: carboxymethylcellulose (CMC) 91 % of control | dose: 7.5 mg/kg/injection, schedule: Q01DX Z (ip), vehicle: carboxymethylcellulose (CMC) 100 % of control | dose: 15.0 mg/kg/injection, schedule: Q01DX Z (ip), vehicle: carboxymethylcellulose (CMC) 100 % of control | dose: 30.0 mg/kg/injection, schedule: Q01DX Z (ip), vehicle: carboxymethylcellulose (CMC) 91 % of control

CC(=O)Nc1ccc(S(=O)(=O)Cl)cc1
inactive: dose: 75.0 mg/kg/injection, schedule: Q01DX001 (ip), vehicle: other 94 % of control | [1] 108 % of control | dose: 150.0 mg/kg/injection, schedule: Q01DX001 (ip), vehicle: other 88 % of control | [2] 92 % of control | [3] 90 % of control

CN(C)c1ccc(/C=N\N=C/c2ccc(N(C)C)cc2)cc1
inactive: dose: 50.0 mg/kg/injection, schedule: Q01DX009 (ip), vehicle: Klucel (hydroxypropylcellulose) (HPC) 97 % of control | [4] 93 % of control | [5] 103 % of control

CS(=O)(=O)CS(C)(=O)=O
inactive: [6] 93 % of control | [4] 94 % of control | [1] 94 % of control | [7] 93 % of control | [5] 105 % of control | [2] 98 % of control | [8] 110 % of control | [9] 101 % of control | [3] 93 % of control

Cc1ccc(N=Nc2ccc(C)cc2NC(=O)c2c(Br)c(Br)c(Br)c(Br)c2C(=O)O)cc1
inactive: [10] 93 % of control | [11] 93 % of control

Cc1ccc2cc3c(cc(C)c4ccccc43)c3c2c1CC3
inactive: dose: 100.0 mg/kg/injection, schedule: Q01DX001 (ip), vehicle: saline 102 % of control | dose: 200.0 mg/kg/injection, schedule: Q01DX001 (ip), vehicle: saline 96 % of control | dose: 400.0 mg/kg/injection, schedule: Q01DX001 (ip), vehicle: saline 96 % of control

O=C1OC(c2ccc([N+](=O)[O-])cc2)=N/C1=C\c1cccc([N+](=O)[O-])c1
inactive: dose: 100.0 mg/kg/injection, schedule: Q01DX009 (ip), vehicle: other 96 % of control | dose: 200.0 mg/kg/injection, schedule: Q01DX009 (ip), vehicle: other 100 % of control | dose: 400.0 mg/kg/injection, schedule: Q01DX009 (ip), vehicle: other 106 % of control

Cn1c2c(c3ccccc31)CC(C(C)(C)C)CC2 (stereo not given)
inactive: dose: 50.0 mg/kg/injection, schedule: Q04DX002 (ip), vehicle: saline with Tween-80 107 % of control | [12] 100 % of control | [13] 97 % of control

C=CC[N+](C)(CC=C)CC[N+](C)(CC=C)CC=C
inactive: dose: 50.0 mg/kg/injection, schedule: Q01DX009 (ip), vehicle: water 93 % of control | dose: 100.0 mg/kg/injection, schedule: Q01DX009 (ip), vehicle: water 95 % of control | dose: 100.0 mg/kg/injection, schedule: Q04DX003 (ip), vehicle: water 94 % of control | dose: 200.0 mg/kg/injection, schedule: Q04DX003 (ip), vehicle: water 96 % of control

Nc1ccc(CCc2ccc(Cl)cc2S(=O)(=O)F)c(Cl)c1
inactive: dose: 100.0 mg/kg/injection, schedule: Q01DX009 (ip), vehicle: saline sonified 97 % of control | dose: 100.0 mg/kg/injection, schedule: Q04DX003 (ip), vehicle: saline sonified 100 % of control | dose: 200.0 mg/kg/injection, schedule: Q01DX009 (ip), vehicle: saline sonified 92 % of control | dose: 200.0 mg/kg/injection, schedule: Q04DX003 (ip), vehicle: saline sonified 100 % of control | dose: 400.0 mg/kg/injection, schedule: Q01DX009 (ip), vehicle: saline sonified 98 % of control | dose: 400.0 mg/kg/injection, schedule: Q04DX003 (ip), vehicle: saline sonified 96 % of control

Cn1ncc2c(N)nc(-c3ccccc3)nc21
inactive: dose: 100.0 mg/kg/injection, schedule: Q04DX003 (ip), vehicle: other 97 % of control

CN(C)c1ccc(C(=O)C#N)cc1
inactive: [4] 100 % of control | [5] 108 % of control | [9] 100 % of control

Cc1n(CC(C)C)c2c([n+]1C)C(=O)c1ccccc1C2=O
inactive: dose: 0.03 mg/kg/injection, schedule: Q01DX001 (ip), vehicle: saline 98 % of control | dose: 0.06 mg/kg/injection, schedule: Q01DX001 (ip), vehicle: saline 109 % of control | dose: 0.12 mg/kg/injection, schedule: Q01DX001 (ip), vehicle: saline 106 % of control | dose: 0.24 mg/kg/injection, schedule: Q01DX001 (ip), vehicle: saline 101 % of control | dose: 0.25 mg/kg/injection, schedule: Q01DX015 (ip), vehicle: saline 97 % of control | dose: 0.5 mg/kg/injection, schedule: Q01DX015 (ip), vehicle: saline 95 % of control | dose: 1.0 mg/kg/injection, schedule: Q01DX015 (ip), vehicle: saline 106 % of control and 108 % of control | dose: 2.0 mg/kg/injection, schedule: Q01DX015 (ip), vehicle: saline 108 % of control | dose: 2.0 mg/kg/injection, schedule: Q04DX003 (ip), vehicle: saline 91 % of control

CCOC(=O)COc1ccc(Cl)cc1C(=O)OCC
inactive: dose: 100.0 mg/kg/injection, schedule: Q04DX002 (sc), vehicle: olive oil, sesame oil, peanut oil 105 % of control | dose: 200.0 mg/kg/injection, schedule: Q04DX002 (sc), vehicle: olive oil, sesame oil, peanut oil 118 % of control | dose: 400.0 mg/kg/injection, schedule: Q04DX002 (sc), vehicle: olive oil, sesame oil, peanut oil 111 % of control

CCCCCCCCCCCCCCCCCCNC(=O)N1CC1
inactive: [10] 93 % of control | [14] 88 % of control | [11] 94 % of control | [15] 100 % of control | [16] 93 % of control | [17] 93 % of control

CC(C)C(NC(=O)C(CSCc1ccccc1)NC(=O)OCc1ccccc1)C(=O)OCc1ccccc1 (stereo not given) (Cbz-Cys(Bn)-Val-OBn; configuration not given here)
inactive: [14] 98 % of control | [15] 93 % of control | [17] 96 % of control

COc1ccccc1NC(=O)Nc1ccc(N(C)C)cc1
inactive: [10] 91 % of control | [18] 86 % of control | [11] 96 % of control | [19] 94 % of control | [16] 102 % of control | [20] 95 % of control

O=c1[nH]c(=O)c2n[nH]c(C3OCC(O)C3O)c2[nH]1 (stereo not given)
inactive: dose: 100.0 mg/kg/injection, schedule: Q01DX005 (ip), vehicle: saline 94 % of control | dose: 200.0 mg/kg/injection, schedule: Q01DX005 (ip), vehicle: saline 97 % of control

N#CCc1ccc2c(c1)Sc1ccccc1O2
inactive: [4] 94 % of control | [5] 100 % of control | [9] 93 % of control

Oc1ccccc1C=Nc1ccc(Cl)cc1
inactive: [12] 105 % of control | [13] 105 % of control | [21] 97 % of control

CC(=O)OC1c2cc(Cl)ccc2-c2c(Cl)cc(Cl)cc21 (stereo not given)
inactive: [6] 95 % of control | [7] 95 % of control | [8] 95 % of control

Cc1cc(Cl)cc(C(=O)Cl)c1O
inactive: [12] 111 % of control | [13] 107 % of control | [21] 103 % of control

CCCCN(c1ccccc1)c1ncnc2c1cnn2C
inactive: dose: 50.0 mg/kg/injection, schedule: Q01DX009 (ip), vehicle: saline with Tween-80 100 % of control | [10] 102 % of control and 104 % of control | [18] 97 % of control | [11] 98 % of control and 105 % of control | [19] 96 % of control | [20] 94 % of control
